One may read the IC50 as the concentration that gives 50% inhibition. Read a low IC50 as greater potency in that assay.

The experiment concerns the target Polymerase acidic protein (Influenza A virus (A/Puerto Rico/8/1934(H1N1)), UniProt P03433). In words: Inhibition of cap 1 ALMV primed Influenza transcriptase.
Take `CC(C)CC1=N/C(=C\c2ccc(F)cc2)C(=O)NC1=O`: the IC50 is greater than 200 µM.

The compound `CC(C)/C=C1\N=C(CC(C)C)C(=O)N(O)C1=O` registered an IC50 of 5.1 µM.

Turning to `COCON1C(=O)C(CC(C)C)=N/C(=C\C(C)C)C1=O`, the IC50 was greater than 200 µM.

`COCON1C(=O)[C@H]([C@H](O)C(C)C)N(Cc2ccccc2)[C@@H](CC(C)C)C1=O` showed a half-maximal inhibitory concentration (IC50) greater than 200 µM.

Compound `COCON1C(=O)[C@H]([C@H](O)C(C)C)N(Cc2ccccc2)[C@@H](Cc2ccccc2)C1=O` yielded an IC50 greater than 200 µM.

`COCON1C(=O)[C@H]([C@@H](O)C(C)C)N(Cc2ccccc2)[C@@H](Cc2ccccc2)C1=O`: the half-maximal inhibitory concentration (IC50) is greater than 200 µM.

Take `COCON1C(=O)/C(=C/c2ccccc2F)N(Cc2ccccc2)[C@@H](CC(C)C)C1=O`: the IC50 is greater than 200 µM.

In turn, `COCON1C(=O)/C(=C\C(C)C)N(Cc2ccccc2)[C@@H](CC(C)C)C1=O` returned an IC50 greater than 200 µM.

In turn, `COCON1C(=O)/C(=C\C(C)C)N(Cc2ccccc2)[C@@H](Cc2ccccc2)C1=O` displayed an IC50 greater than 200 µM.

The compound `COCON1C(=O)C(CC(C)C)=N/C(=C\c2ccccc2)C1=O` gave an IC50 greater than 200 µM.

Regarding `COCON1C(=O)C(CC(C)C)=N/C(=C\c2ccc(OC)cc2)C1=O`, the IC50 is greater than 200 µM.

In turn, `COCON1C(=O)C(CC(C)C)=N/C(=C\c2ccc(F)cc2)C1=O` gave a half-maximal inhibitory concentration (IC50) greater than 200 µM.

With `COCON1C(=O)C(CC(C)C)=N/C(=C\c2cccc(F)c2)C1=O`, the IC50 is greater than 200 µM.

Take `COCON1C(=O)C(CC(C)C)=N/C(=C\c2ccccc2F)C1=O`: the IC50 is greater than 200 µM.

`COCON1C(=O)C(Cc2ccccc2)=N/C(=C\C(C)C)C1=O` had an IC50 greater than 200 µM.

The compound `COCON1C(=O)C(Cc2ccccc2)=N/C(=C\c2ccc(OC)cc2)C1=O` had an IC50 greater than 200 µM.

Compound `COCON1C(=O)C(Cc2ccccc2)=N/C(=C\c2ccc(F)cc2)C1=O` displayed an IC50 greater than 200 µM.

Take `O=C1C(Cc2ccccc2)NC(Cc2ccc(F)cc2)C(=O)N1O` (stereo not drawn): the midpoint of inhibition, the IC50, lay at 85 µM.

Values taken from ChEMBL document CHEMBL2040547, “Synthesis of natural flutimide and analogous fully substituted pyrazine-2,6-diones, endonuclease inhibitors of influenza virus” (J Org Chem, 2001).
